Assay: Solubility of the THz molecular tags in various solvents
Format: physicochemical

Compound | Solubility in THF (solvent THF (tetrahydrofuran)) | Solubility in Diethyl Ether (solvent Diethyl Ether) | Solubility in Toluene (solvent Toluene)
O=C(NCCNC(=O)Nc1ccccc1)Nc1ccccc1 [PhU—C2—UPh, 1,1′-(ethane-1,2-diyl)bis(3-phenylurea)] | Turbid | – | –
O=C(Nc1ccccc1)Nc1cccc(NC(=O)c2ccccc2)n1 [PhU—Ph—AP, N-(6-(3-phenylureido)pyridin-2-yl)benzamide] | – | Turbid | Turbid
